# According to patent publication US7045648B2, “Compound as cholinesterase inhibitor and its isolation from fungus sporotrichum species” (priority 2002, dated 2006):
# Experiments:
# [1] = target: T1, acetylcholinesterase from erythrocytes (Homo sapiens, UniProt P22303); assay: Erythrocyte acetylcholinesterase inhibition; type: biochemical, rat; details: erythrocyte enzyme; read-out: IC50 against acetylcholinesterase from erythrocytes
# T1 construct: from tissue; host or cells: erythrocytes
# [2] = target: T2, rat brain acetylcholinesterase (Rattus norvegicus, UniProt P37136); assay: Rat brain acetylcholinesterase inhibition (Ellman method); type: biochemical; details: rat brain enzyme; 15 min pre-incubation at 25° C.; acetyl thiocholine iodide 0.5 mM; pH 7.4; read-out: IC50 against rat brain AchE
# T2 construct: from tissue; host or cells: rat brain
# T2 sequence (P37136 32-614): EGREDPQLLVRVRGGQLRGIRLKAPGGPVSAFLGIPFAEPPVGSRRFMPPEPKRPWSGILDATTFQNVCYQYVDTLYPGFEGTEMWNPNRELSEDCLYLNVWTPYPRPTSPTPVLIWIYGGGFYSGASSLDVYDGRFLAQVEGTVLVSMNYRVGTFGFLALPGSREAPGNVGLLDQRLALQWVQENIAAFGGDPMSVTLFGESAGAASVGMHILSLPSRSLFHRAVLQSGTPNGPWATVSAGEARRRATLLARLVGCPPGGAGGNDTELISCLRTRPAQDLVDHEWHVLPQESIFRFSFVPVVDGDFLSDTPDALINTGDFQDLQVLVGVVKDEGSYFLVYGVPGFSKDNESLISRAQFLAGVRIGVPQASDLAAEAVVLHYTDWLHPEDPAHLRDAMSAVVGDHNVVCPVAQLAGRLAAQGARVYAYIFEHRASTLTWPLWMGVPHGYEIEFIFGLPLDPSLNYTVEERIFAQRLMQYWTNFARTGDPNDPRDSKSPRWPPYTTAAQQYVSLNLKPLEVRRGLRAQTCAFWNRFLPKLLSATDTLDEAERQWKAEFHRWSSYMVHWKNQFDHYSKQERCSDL
# Protocol: Absorbance change at 412 nm is monitored every 30 seconds for 2 min in an UV-VIS Spectrophotometer. Inhibition is calculated relative to the solvent control. IC50 is determined by regression analysis.
# [3] = test system: serine esterase of the rat liver serum; assay: Serine esterase inhibition; type: biochemical
# [4] = test system: mosquito larvae culex quinquifasciatus; assay: Insecticidal activity against mosquito larvae; type: in vivo; details: in water (70 ppm); exposed for 24 hrs
# Protocol: Yet another embodiment of the present invention, wherein said compound effective against mosquito larvae at an optimum concentration of 70 μg/ml water (70 ppm) when exposed for 24 hrs.
# Still another embodiment of the present invention, wherein the insecticidal activity of the compound against mosquito larvae is selected from culex quinquifasciatus.
# [5] = Solubility in organic solvents; type: physicochemical; details: in ethyl acetate, methanol and acetone
# T1 sequence (P22303 32-617 isoform P22303-2 limits assumed): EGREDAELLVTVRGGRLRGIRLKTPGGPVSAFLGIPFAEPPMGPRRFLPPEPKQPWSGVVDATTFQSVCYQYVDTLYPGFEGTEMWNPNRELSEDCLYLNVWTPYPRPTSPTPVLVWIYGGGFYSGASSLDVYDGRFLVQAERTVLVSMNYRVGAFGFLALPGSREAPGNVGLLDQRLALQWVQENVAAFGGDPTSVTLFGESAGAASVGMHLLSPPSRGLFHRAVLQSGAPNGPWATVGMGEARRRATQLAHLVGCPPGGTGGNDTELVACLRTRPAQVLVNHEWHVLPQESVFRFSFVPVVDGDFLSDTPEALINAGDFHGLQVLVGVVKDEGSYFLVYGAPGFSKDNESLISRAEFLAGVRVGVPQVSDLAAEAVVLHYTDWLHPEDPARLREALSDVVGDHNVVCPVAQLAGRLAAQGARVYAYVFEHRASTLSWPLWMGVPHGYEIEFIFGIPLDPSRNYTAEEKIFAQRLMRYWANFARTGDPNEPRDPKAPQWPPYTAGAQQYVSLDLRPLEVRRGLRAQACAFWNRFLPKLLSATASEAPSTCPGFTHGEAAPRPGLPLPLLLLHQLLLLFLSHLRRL
smiles,measurement,setting,value
"COc1ccc(C(=O)O)c(C(O)CCCCCCCC(=O)CC(C)O)c1 (centres unmarked) [Sporotricolone, 12-(2′-CARBOXY-5′-METHOXYPHENYL)-2,12-DIHYDROXY-DODECA-4-ONE]",IC50,[1],20 µM
same,IC50,[2],20 µM
same,inhibition of serine esterase of the rat liver serum,[3],inhibitor
same,optimum concentration effective against mosquito larvae,[4],70 µg/mL
same,Solubility,[5],Highly soluble
